One assay has as its system WT HIV-1 strain (IIIB). The assay can be described thus: Anti-HIV activity in MT-4 cells, MTT method, WT HIV-1 strain (IIIB). The format is cell-based. An excerpt: Etravirine (ETR) was selected as control drug.
Pannecouque et al. Nat. Protoc. […] Methods 20(1988) 309-321.

Assay [1] deals with HIV-1 mutant strains (K101E, V108I, F227C, M230I in RT gene). The experiment in a line: Activity against mutant strains selected by passaging HIV-1 IIIB 30 times in the presence of DK6-1. The format is cell-based.
Assay [2] concerns HIV-1 E138K mutant strain. The experiment in a line: microbe, parasite or virus in culture. The note with it: Human immunodeficiency virus 1, MT4, read-out: EC50 (anti-HIV activity).
Assay [3] deals with HIV-1 K103N mutant strain. The assay can be described thus: Anti-HIV activity in MT-4 cells, MTT method, K103N mutant strain. The following applies: Human immunodeficiency virus 1, MT4, read-out: EC50 (anti-HIV activity). The format is cell-based. The text has this:
Pannecouque et al. Nat. Protoc.

In assay [4] the test system is HIV-1 L100I mutant strain. The experiment in a line: microbe, parasite or virus in culture. The following applies: Human immunodeficiency virus 1, MT4, read-out: EC50 (anti-HIV activity).

For the compound `Cc1cn([C@H]2C[C@H](N=[N+]=[N-])[C@@H](CO)O2)c(=O)[nH]c1=O` [AZT], the EC50 in the assay on WT HIV-1 strain (IIIB) (HIV-1 IIIB wild-type) is 12.7 nM; in assay [1] (mutant strains with K101E, V108I, F227C, M230I) it was 1 nM. The “fold potent versus own activity against HIV-1 IIIB” value in assay [1] (selected mutant strains vs HIV-1 IIIB) is “about 10 fold”.
`Cc1cc(/C=C/C#N)cc(C)c1Oc1nc(NC2CCN(Cc3ccc(S(N)(=O)=O)cc3)CC2)nc2sccc12` [DK6-1]: the EC50 in assay [2] was below 8 nM; in assay [3], 2.34 nM; in the assay on WT HIV-1 strain (IIIB) (Human immunodeficiency virus 1, MT4, HIV-1 IIIB wild-type), 3.24 nM; in assay [4], below 8 nM.

Source of the values: patent publication US12351586B2 (priority 2020, dated 2025).
